Measured values as given in patent US6221865A, “Inhibitors of protein isoprenyl transferases” (priority 1998, dated 2001).
One block for each compound: values may come before it.

Biological target: T1, protein farnesyltransferase (Rattus norvegicus, UniProt Q02293+Q04631)
T1 construct: The enzyme is purified according to Reiss, Y., et al., Cell, 62: 81-88 (1990), utilizing steps one through three; from tissue; host or cells: rat brain
Assay: Inhibition of farnesyltransferase (scintillation proximity assay, rat brain enzyme, biotin-K Ras B fragment substrate)
Format: biochemical
Settings: for % inhibition of farnesyltransferase at 1 × 10^-8 M / inhibition at 0.01 µM: 1 × 10^-8 M (Table 4); for % inhibition of farnesyltransferase at 1 × 10^-6 M / inhibition at 1 µM: 1 × 10^-6 M (Table 2); for % inhibition of farnesyltransferase at 1 × 10^-7 M / inhibition at 0.1 µM: 1 × 10^-7 M (Table 3); for inhibition at 0.1 µM: read-out: % inhibition of farnesyltransferase at 1 × 10^-7 M; for inhibition at 0.01 µM: read-out: % inhibition of farnesyltransferase at 1 × 10^-8 M; for inhibition at 1 µM: read-out: % inhibition of farnesyltransferase at 1 × 10^-6 M
How it was run: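 Enzyme from rat brain, partly purified (steps one to three), assayed by SPA kit using 0.1 mM final biotin-K Ras B peptide as prenyl acceptor rather than biotin-lamin. Activity given as percent inhibition.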

T1 sequence (Q02293 whole entry, one chain of several): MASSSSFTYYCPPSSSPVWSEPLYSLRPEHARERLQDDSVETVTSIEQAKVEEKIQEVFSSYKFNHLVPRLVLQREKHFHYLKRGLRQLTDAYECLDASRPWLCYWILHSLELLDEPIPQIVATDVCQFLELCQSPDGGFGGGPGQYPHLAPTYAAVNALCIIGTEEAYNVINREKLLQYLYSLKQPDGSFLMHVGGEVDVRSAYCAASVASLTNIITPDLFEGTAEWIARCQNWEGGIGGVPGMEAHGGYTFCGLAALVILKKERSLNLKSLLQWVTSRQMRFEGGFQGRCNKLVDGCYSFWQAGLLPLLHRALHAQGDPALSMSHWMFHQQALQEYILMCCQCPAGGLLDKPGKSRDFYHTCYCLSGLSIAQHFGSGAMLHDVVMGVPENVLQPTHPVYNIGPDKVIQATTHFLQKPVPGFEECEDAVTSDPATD

SMILES: CCCCC(OCc1ccc(C(=O)N[C@@H](CCSC)C(=O)[O-])c(-c2ccccc2C)c1)c1ccc(-c2ccc(Cl)cc2)o1.[Li+] (some centres unmarked) [Example 826]
% inhibition of farnesyltransferase at 1 × 10^-8 M: 92%

SMILES: CSCC[C@H](NC(=O)c1ccc(COCc2occc2-c2ccc(Cl)cc2)cc1-c1ccccc1C)C(=O)[O-].[Li+] [Example 827]
% inhibition of farnesyltransferase at 1 × 10^-8 M: 77%

SMILES: CSCC[C@H](NC(=O)c1ccc(COC(Cc2ccccc2)c2cncs2)cc1-c1ccccc1C)C(=O)[O-].[Li+] (some centres unmarked) [Example 828]
% inhibition of farnesyltransferase at 1 × 10^-8 M: 87%

SMILES: CSCC[C@H](NC(=O)c1ccc(COCc2oc(-c3ccc(Cl)cc3)c(Cl)c2Cl)cc1-c1ccccc1C)C(=O)[O-].[Li+] [Example 829]
% inhibition of farnesyltransferase at 1 × 10^-8 M: 92%

SMILES: CSCC[C@H](NC(=O)c1ccc(CN(Cc2ccccc2)c2cccc([N+](=O)[O-])c2)cc1-c1ccccc1C)C(=O)[O-].[Li+] [Example 842]
% inhibition of farnesyltransferase at 1 × 10^-8 M: 88%

SMILES: CSCC[C@H](NC(=O)c1ccc(CN(Cc2ccccc2)c2ccccc2[N+](=O)[O-])cc1-c1ccccc1C)C(=O)[O-].[Li+] [Example 849]
% inhibition of farnesyltransferase at 1 × 10^-7 M: 66%

SMILES: CSCC[C@H](NC(=O)c1ccc(CN(Cc2ccccc2)c2ccccc2SC)cc1-c1ccccc1C)C(=O)[O-].[Li+] [Example 850]
% inhibition of farnesyltransferase at 1 × 10^-6 M: 90%

SMILES: CSCC[C@H](NC(=O)c1ccc(CN(Cc2ccccc2)c2cccc(SC)c2)cc1-c1ccccc1C)C(=O)[O-].[Li+] [Example 851]
% inhibition of farnesyltransferase at 1 × 10^-8 M: 82%

SMILES: CSCC[C@H](NC(=O)c1ccc(CN(Cc2ccccc2)c2ccc(SC)cc2)cc1-c1ccccc1C)C(=O)[O-].[Li+] [Example 852]
% inhibition of farnesyltransferase at 1 × 10^-8 M: 79%

SMILES: CSCC[C@H](NC(=O)c1ccc(/C=C/c2ccc(Oc3ccccc3[N+](=O)[O-])cc2)cc1-c1ccccc1C)C(=O)O [Example 856, N-[4-(2-(4-(2-nitrophenoxy)phenyl)ethen-1-yl)-2-(2-methylphenyl)benzoyl]methionine]
inhibition at 0.1 µM: 97%

SMILES: CSCC[C@H](NC(=O)c1ccc(/C=C/c2ccc(Oc3cccc(Cl)c3)cc2)cc1-c1ccccc1C)C(=O)O [Example 858, N-[4-(2-(4-(3-chlorophenoxy)phenyl)ethen-1-yl)-2-(2-methylphenyl)benzoyl]methionine]
inhibition at 0.01 µM: 60%

SMILES: CSCC[C@H](NC(=O)c1ccc(/C=C/c2ccc(Oc3cccc([N+](=O)[O-])c3)cc2)cc1-c1ccccc1C)C(=O)O [Example 861, N-[4-(2-(4-(3-nitrophenoxy)phenyl)ethen-1-yl)-2-(2-methylphenyl)benzoyl]methioziine]
inhibition at 0.1 µM: 65%

SMILES: CSCC[C@H](NC(=O)c1ccc(CNc2ccc(N3CCCCC3)cc2)cc1-c1ccccc1C)C(=O)O [Example 862]
% inhibition of farnesyltransferase at 1 × 10^-6 M: 95%

SMILES: CSCC[C@H](NC(=O)c1ccc(CNc2ccc(N3CCOCC3)cc2)cc1-c1ccccc1C)C(=O)O [Example 863]
% inhibition of farnesyltransferase at 1 × 10^-7 M: 72%

SMILES: CSCC[C@H](NC(=O)c1ccc(CN2CCN(C(=O)OC(C)(C)C)CC2)cc1-c1ccccc1C)C(=O)O [Example 866, N-[4-(4-t-butoxycarbonylpiperazin-1-ylmethyl)-2-(2-methylphenyl)benzoyl]methionine]
inhibition at 1 µM: 62%

SMILES: CSCC[C@H](NC(=O)c1ccc(COCc2ccc(-c3ccc(F)cc3)o2)cc1-c1cccc2ccccc12)C(=O)[O-].[Li+] [Example 868]
% inhibition of farnesyltransferase at 1 × 10^-6 M: 89%

SMILES: CSCC[C@H](NC(=O)c1ccc(COCc2ccc(-c3ccc(F)cc3)o2)cc1-c1ccc(F)cc1Cl)C(=O)[O-].[Li+] [Example 869]
% inhibition of farnesyltransferase at 1 × 10^-7 M: 92%

SMILES: CSCC[C@H](NC(=O)c1ccc(CN(Cc2cncs2)S(C)(=O)=O)cc1-c1ccccc1C)C(=O)O [Example 878]
% inhibition of farnesyltransferase at 1 × 10^-6 M: 95%

SMILES: CSCC[C@H](NC(=O)c1ccc(OCCCc2ccccc2)cc1-c1ccccc1C)C(=O)[O-].[Li+] [Example 879]
% inhibition of farnesyltransferase at 1 × 10^-6 M: 95%

SMILES: CSCC[C@H](NC(=O)c1ccc(CN(CCC2CCCCC2)C2CC2)cc1-c1ccccc1C)C(=O)O [Example 880]
% inhibition of farnesyltransferase at 1 × 10^-8 M: 95%

SMILES: CSCC[C@H](NC(=O)c1ccc(CN(Cc2cncs2)C2CCSCC2)cc1-c1ccccc1C)C(=O)O [Example 881]
% inhibition of farnesyltransferase at 1 × 10^-8 M: 69%

SMILES: CSCC[C@H](NC(=O)c1ccc(CO[C@H](CSC)CC2CCCCC2)cc1-c1ccccc1C)C(=O)O [Example 882]
% inhibition of farnesyltransferase at 1 × 10^-8 M: 79%

SMILES: CSCC[C@H](NC(=O)c1ccc(CO[C@H](CSC(C)(C)C)CC2CCCCC2)cc1-c1ccccc1C)C(=O)O [Example 883]
% inhibition of farnesyltransferase at 1 × 10^-8 M: 91%

SMILES: CSCC[C@H](NC(=O)c1ccc(CO[C@H](CSc2ccccc2)CC2CCCCC2)cc1-c1ccccc1C)C(=O)O [Example 884]
% inhibition of farnesyltransferase at 1 × 10^-8 M: 94%

SMILES: CSCC[C@H](NC(=O)c1ccc(CO[C@@H](CC2CCCCC2)CN2CCOCC2)cc1-c1ccccc1C)C(=O)O [Example 885]
% inhibition of farnesyltransferase at 1 × 10^-8 M: 95%

SMILES: CSCC[C@H](NC(=O)c1ccc(CN(C(=O)OC(C)(C)C)C(CC2CCCCC2)CC2CCCCC2)cc1-c1ccccc1C)C(=O)O [Example 886]
% inhibition of farnesyltransferase at 1 × 10^-6 M: 35%

Further lines, results first:

% inhibition of farnesyltransferase at 1 × 10^-6 M: 92%
SMILES: CSCC[C@H](NC(=O)c1ccc(CN(Cc2ccco2)C(C)C)cc1-c1ccccc1C)C(=O)O [Example 831]

% inhibition of farnesyltransferase at 1 × 10^-6 M: 80%
SMILES: CSCC[C@H](NC(=O)c1ccc(CN(Cc2ccoc2)C(C)C)cc1-c1ccccc1C)C(=O)O [Example 832]

% inhibition of farnesyltransferase at 1 × 10^-6 M: 55%
SMILES: CSCC[C@H](NC(=O)c1ccc(CN(Cc2ccccc2)Cc2ccccc2)cc1-c1ccccc1)C(=O)O [Example 834]

% inhibition of farnesyltransferase at 1 × 10^-6 M: 96%
SMILES: CSCC[C@H](NC(=O)c1ccc(CN(CCc2ccccc2)C(C)C)cc1-c1ccccc1C)C(=O)O [Example 835]

% inhibition of farnesyltransferase at 1 × 10^-8 M: 95%
SMILES: CSCC[C@H](NC(=O)c1ccc(CN(Cc2ccccc2)c2cncnc2)cc1-c1ccccc1C)C(=O)O [Example 836]

% inhibition of farnesyltransferase at 1 × 10^-8 M: 91%
SMILES: CSCC[C@H](NC(=O)c1ccc(CN(Cc2ccc3c(c2)OCO3)c2cncnc2)cc1-c1ccccc1C)C(=O)O [Example 837]

% inhibition of farnesyltransferase at 1 × 10^-8 M: 92%
SMILES: CSCC[C@H](NC(=O)c1ccc(CN(Cc2ccc3c(c2)OCO3)c2cnccn2)cc1-c1ccccc1C)C(=O)O [Example 838]

% inhibition of farnesyltransferase at 1 × 10^-7 M: 63%
SMILES: COc1ccccc1N(Cc1ccccc1)Cc1ccc(C(=O)N[C@@H](CCSC)C(=O)O)c(-c2ccccc2C)c1 [Example 839]

% inhibition of farnesyltransferase at 1 × 10^-8 M: 73%
SMILES: COc1ccc(N(Cc2ccccc2)Cc2ccc(C(=O)N[C@@H](CCSC)C(=O)O)c(-c3ccccc3C)c2)cc1 [Example 840]

% inhibition of farnesyltransferase at 1 × 10^-8 M: 96%
SMILES: CSCC[C@H](NC(=O)c1ccc(CN(Cc2ccccc2)c2ccc([N+](=O)[O-])cc2)cc1-c1ccccc1C)C(=O)O [Example 843]

% inhibition of farnesyltransferase at 1 × 10^-6 M: 92%
SMILES: CSCC[C@H](NC(=O)c1ccc(CN(Cc2ccccc2)c2ccccc2C(C)=O)cc1-c1ccccc1C)C(=O)O [Example 844]

% inhibition of farnesyltransferase at 1 × 10^-8 M: 85%
SMILES: CSCC[C@H](NC(=O)c1ccc(CN(Cc2ccccc2)c2cccc(C(C)=O)c2)cc1-c1ccccc1C)C(=O)O [Example 845]

% inhibition of farnesyltransferase at 1 × 10^-6 M: 85%
SMILES: CSCC[C@H](NC(=O)c1ccc(CN(Cc2ccccc2)c2ccccc2Cl)cc1-c1ccccc1C)C(=O)O [Example 846]

% inhibition of farnesyltransferase at 1 × 10^-8 M: 85%
SMILES: CSCC[C@H](NC(=O)c1ccc(CN(Cc2ccccc2)c2cccc(Cl)c2)cc1-c1ccccc1C)C(=O)O [Example 847]

% inhibition of farnesyltransferase at 1 × 10^-8 M: 87%
SMILES: CSCC[C@H](NC(=O)c1ccc(CN(Cc2ccccc2)c2ccc(Cl)cc2)cc1-c1ccccc1C)C(=O)O [Example 848]

% inhibition of farnesyltransferase at 1 × 10^-8 M: 85%
SMILES: CSCC[C@H](NC(=O)c1ccc(CN(Cc2ccccc2)c2ccc(C(F)(F)F)cc2)cc1-c1ccccc1C)C(=O)O [Example 853]

inhibition at 0.1 µM: 78%
SMILES: CSCC[C@H](NC(=O)c1ccc(/C=C/c2ccc(Oc3ccccc3Cl)cc2)cc1-c1ccccc1C)C(=O)O [Example 854, N-[4-(2-(4-(2-chlorophenoxy)phenyl)ethen-1-yl)-2-(2-methylphenyl)benzovyl]methionine]

inhibition at 0.1 µM: 92%
SMILES: CSCC[C@H](NC(=O)c1ccc(CCc2ccc(Oc3ccccc3Cl)cc2)cc1-c1ccccc1C)C(=O)O [Example 855, N-[4-(2-(4-(2-chlorophenoxy)phenyl)ethyl)-2-(2-methylphenyl)benzoyl]methionine]

inhibition at 0.1 µM: 92%
SMILES: CSCC[C@H](NC(=O)c1ccc(CCc2ccc(Oc3ccccc3N)cc2)cc1-c1ccccc1C)C(=O)O [Example 857, N-[4-(2-(4-(2-aminophenoxy)phenyl)ethyl)-2-(2-methylphenyl)benzoyl]methionine]

inhibition at 0.1 µM: 86%
SMILES: CSCC[C@H](NC(=O)c1ccc(CCc2ccc(Oc3cccc(Cl)c3)cc2)cc1-c1ccccc1C)C(=O)O [Example 859, N-[4-(2-(4-(3-chlorophenoxy)phenyl)ethyl)-2-(2-methylphenyl)benzoyl]methionine]

inhibition at 0.01 µM: 85%
SMILES: CSCC[C@H](NC(=O)c1ccc(CCc2ccc(Oc3ccc(Cl)cc3)cc2)cc1-c1ccccc1C)C(=O)O [Example 860, N-[4-(2-(4-(4-chlorophenoxy)phenyl)ethyl)-2-(2-methylphenyl)benzoyl]methionine]

% inhibition of farnesyltransferase at 1 × 10^-7 M: 84%
SMILES: CSCC[C@H](NC(=O)c1ccc(CNc2ccc(Oc3ccccc3)cc2)cc1-c1ccccc1C)C(=O)O [Example 864]

inhibition at 1 µM: 71%
SMILES: CSCC[C@H](NC(=O)c1ccc(CN2CCN(c3ccccc3)CC2)cc1-c1ccccc1C)C(=O)O [Example 867, N-[4-(4-phenylpiperazin-1-ylmethyl)-2-(2-methylphenyl)benzoyl]methionine]

% inhibition of farnesyltransferase at 1 × 10^-8 M: 68%
SMILES: CSCC[C@H](NC(=O)c1ccc(CN(Cc2cncs2)S(=O)(=O)c2ccc(C)cc2)cc1-c1ccccc1C)C(=O)O [Example 877]
